Measurements as given in patent EP2587940B1, “PARTICLES COMPRISING HYDROPHOBIC POLYMER AND HYDROPHOBIC PHENOLIC COMPOUND” (Unilever N.V., priority 2010, dated 2012).

Key:
[1] = tested on: acetylated LDL metabolism; conditions: Whitman S.C. et al. 2005; cited from earlier work
[2] = Water dispersibility, USP 2 dissolution test; format: physicochemical; conditions: deionised water with 0.05% Tween 80
Experimental: The aim of the experiment is to see how well formulated curcumin disperses in aqueous media. […] Curcumin determined included both free as well as complexed or encapsulated curcumin. […] Samples were withdrawn at specified time interval (5, 15, 30, 60, 90, 120 and 180 mins) and analysed using UV-vis spectroscopic method.

pH stability in buffers = format: physicochemical; conditions: for non-degraded: after 6 hours, 20 microgram per mL curcumin
Source text: (§1) Enhanced stability of colloidal dispersion of curcumin-zein to various pH and UV irradiation was studied as follows.

[3] = Stability in simulated gastro-intestinal conditions (dissolution test, gastric and intestinal phase); format: physicochemical; conditions: gastric phase pH 2 with pepsin in first 2 hours
Experimental: To study the stability of the colloidal dispersion of particles according to the invention in simulated gastro-intestinal conditions, a dissolution test was carried out in simulated gastric and intestinal phases using following conditions. This test indicates whether the particles are suitable to be used as a delivery system for phenolic compounds to the human body. Zein-curcumin particles (5:1 wt/wt) were used. • For gastric phase: Water with 0.05% Tween , pH 2 in first 2 hours with pepsin • For intestinal phase: pH adjusted to 6.8 and bile salts and pancreatin added to the medium. • Sampling point: (5, 15, 30, 60, 90, 120 and 180 mins).

[4] = Photostability under UV irradiation; format: physicochemical; conditions: UV irradiation 302 nm
Source text: as §1

For `COc1ccc(-c2cc(=O)c3c(OC)c(OC)c(OC)c(OC)c3o2)cc1OC` [nobiletin], the “inhibited acetylated LDL metabolism” value [1] is given as 50-72%.
`COc1cc(/C=C/C(=O)CC(=O)/C=C/c2ccc(O)c(OC)c2)ccc1O` [pure curcumin, Curcumin] gave a cumulative release ([2]; 0 min) of 0%, a cumulative release ([2]; 15 min) of 18.1 ± 1.3% and a cumulative release ([2]; 30 min) of 19.1 ± 1.4%. For the same compound, the cumulative release ([2]; 60 min) was 22.6 ± 1.7%, the cumulative release ([2]; 90 min) was 25.7 ± 1.9% and the cumulative release ([2]; 120 min) was 27.8 ± 2.0%. It also gave a cumulative release ([2]; 180 min) of 32.8 ± 2.7%, a non-degraded (pH stability in buffers; pH 1.2) of 56.0% and a non-degraded (pH stability in buffers; pH 4.5) of 69.7%. For the same compound, the non-degraded (pH stability in buffers; pH 6.7) was 67.6%, the non-degraded (pH stability in buffers; pH 7.4) was 66.6% and the colour (pH stability in buffers; pH 9.0) was “turned red in colour”. It also gave a non-degraded (pH stability in buffers; pH 9.0) of 52.9%, a release ([3]; 0 min, then intestinal phase pH 6.8 with bile salts and pancreatin) of 0% and a release ([3]; 5 min, then intestinal phase pH 6.8) of 18.0 ± 2.0%. It also gave a release ([3]; 15 min, then intestinal phase pH 6.8) of 18.3 ± 0.3%, a release ([3]; 30 min, then intestinal phase pH 6.8) of 20.9 ± 2.2% and a release ([3]; 60 min, then intestinal phase pH 6.8) of 21.7 ± 1.9%. The release ([3]; 90 min, then intestinal phase pH 6.8) was 38.1 ± 0.5%, the release ([3]; 120 min, then intestinal phase pH 6.8) was 36.9 ± 1.4% and the release ([3]; 150 min, then intestinal phase pH 6.8) was 37.6 ± 2.3%. The release ([3]; 180 min, then intestinal phase pH 6.8) was 37.0 ± 1.2%, the unchanged curcumin level ([4]; 0 min) was 100% and the unchanged curcumin level ([4]; 5 min) was 93.6%. For the same compound, the unchanged curcumin level ([4]; 10 min) was 88.4%, the unchanged curcumin level ([4]; 15 min) was 66.7% and the unchanged curcumin level ([4]; 30 min) was 59.6%.
